The source of these data is US7531573B2 (priority 1994, dated 2009).

The target in test [1] is Gardos channel of erythrocytes (Homo sapiens, UniProt O15554). In words: cell-based. Conditions: for inhibition at 10 µM: read-out: Gardos Channel % Inhibition.
In test [2] the test system is NIH 3T3 mouse fibroblast cells. Kind of test: Mitogen-induced cell proliferation. Type of test: cell-based. The conditions noted are these: for inhibition at 10 µM: NIH3T3, read-out: Mitogen-induced cell proliferation % Inhibition; for pIC50: NIH3T3, read-out: Mitogen-induced cell proliferation IC50. The text has this:
Other cell lines, e.g., cancer cells, endothelial cells and fibroblasts, as well as many others, may be used in the cell proliferation assay. Selection of a particular cell line will depend in part on the desired application, and is well within the capabilities of an ordinarily skilled artisan.

The mark [3] stands for this setting: erythrocytes, read-out: Gardos Channel IC50.

pIC50: −log10 of the molar value. Read-outs that look alike come from different tables or passages of the source.

Chain of Gardos channel of erythrocytes (O15554 whole entry): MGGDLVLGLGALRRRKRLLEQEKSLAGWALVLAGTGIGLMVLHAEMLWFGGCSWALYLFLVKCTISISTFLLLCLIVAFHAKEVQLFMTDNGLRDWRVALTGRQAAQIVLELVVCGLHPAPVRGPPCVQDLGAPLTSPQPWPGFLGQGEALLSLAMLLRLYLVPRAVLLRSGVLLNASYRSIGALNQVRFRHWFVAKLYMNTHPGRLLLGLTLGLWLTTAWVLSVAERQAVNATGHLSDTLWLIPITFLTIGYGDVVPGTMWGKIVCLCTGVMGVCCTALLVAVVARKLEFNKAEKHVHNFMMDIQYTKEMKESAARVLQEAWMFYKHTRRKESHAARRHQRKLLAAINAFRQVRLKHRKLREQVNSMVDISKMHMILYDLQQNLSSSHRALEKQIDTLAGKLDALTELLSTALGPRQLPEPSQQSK

In the case of `OC(c1ccccc1)(c1ccccc1)c1ccccc1` [Compound 1], in test [1], the pIC50 was 6.12 and the inhibition at 10 µM was determined as 97%.

Consider `ClC(c1ccccc1)(c1ccccc1)c1ccccc1` [Compound 2], for which the inhibition at 10 µM in test [2] was 64.8%; in test [1], 99.4%. The compound also showed a pIC50 in test [1] of 6.34.

Regarding `c1ccc(C(c2ccccc2)c2ccccc2)cc1` [Compound 3], in test [2], the inhibition at 10 µM came to 53%. In test [1], the pIC50 is 5.92 and the inhibition at 10 µM was determined as 86.6%.

For the compound `c1ccc(C(c2ccccc2)c2ccncc2)cc1` [Compound 4], the inhibition at 10 µM in test [2] turned out to be 37.7%. In addition, in test [1], the pIC50 was 5.54 and the inhibition at 10 µM came to 91%.

For the compound `NC(c1ccccc1)(c1ccccc1)c1ccccc1` [Compound 5], the inhibition at 10 µM in test [2] is 66%; in test [1] it was 86%. The pIC50 was 5.89 in test [2] and 5.78 in test [1].

In the case of `c1ccc(C(c2ccccc2)(c2ccccc2)[n+]2ccccc2)cc1` [Compound 7], the figures for the inhibition at 10 µM in test [2] and in test [1] were 6.6% and 98.2%, respectively. The pIC50 in test [1] (setting [3]) was 6.39.

Turning to `c1ccc(N(c2ccccc2)c2ccccc2)cc1` [Compound 8], the inhibition at 10 µM was found to be 28.3% in test [2] and 95.6% in test [1]. The pIC50 in test [1] (setting [3]) was 5.55.

Turning to `O=C(O)CC(c1ccccc1)(c1ccccc1)c1ccccc1` [Compound 9], the inhibition at 10 µM in test [2] was determined as 32.7%; in test [1], 77.2%. This compound also had a pIC50 in test [1] of 4.66.

Regarding `C1=CC(=P(c2ccccc2)(c2ccccc2)c2ccccc2)C=C1` [Compound 10], the figures for the inhibition at 10 µM in test [2] and in test [1] were 25.5% and 89.7%, respectively. The pIC50 in test [2] is 5.32; in test [1] (setting [3]), 6.02.

Turning to `SC(c1ccccc1)(c1ccccc1)c1ccccc1` [Compound 11], the inhibition at 10 µM in test [2] is 52%; in test [1], 99.2%. Besides, the pIC50 in test [2] was 5.64; in test [1] (setting [3]) it was 5.67.

As for `BrC(c1ccccc1)(c1ccccc1)c1ccccc1` [Compound 12], in test [2], the inhibition at 10 µM was found to be 72.8% and the pIC50 is 5.77. Further, in test [1], the pIC50 is 6.60 and the inhibition at 10 µM was 99%.

Consider `N#CC(c1ccccc1)(c1ccccc1)c1ccccc1` [Compound 13], for which the inhibition at 10 µM is 87% in test [2] and 72.4% in test [1]. Moreover, the pIC50 in test [2] is 6.04; in test [1] (setting [3]) it was 6.88.

With `N#CC(c1ccccc1)(c1ccccc1)c1ccccc1Cl` [Compound 14, (2-chlorophenyl)-diphenylacetonitrile], the inhibition at 10 µM in test [2] is 95.8%; in test [1] it was 98.8%. The pIC50 is 5.66 in test [2] and 7.32 in test [1].

As to `NC(=O)CC(c1ccccc1)(c1ccccc1)c1ccccc1` [Compound 18], the inhibition at 10 µM in test [2] turned out to be 76.1%; in test [1] it was 98%. Besides, the figures for the pIC50 in test [2] and in test [1] (setting [3]) were 5.00 and 6.37, respectively.

Take `N#CCC(c1ccccc1)(c1ccccc1)c1ccccc1` [Compound 19]: the inhibition at 10 µM in test [2] was determined as 80%; in test [1], 97%. Besides, the pIC50 in test [2] is 5.24; in test [1] (setting [3]), 5.95.

As for `OC(c1ccccc1)(c1ccccc1)c1ccccc1F` [Compound 20], in test [2], the inhibition at 10 µM stood at 39%. For the same compound, in test [1], the pIC50 was 6.10 and the inhibition at 10 µM is 98.1%.

In the case of `CON(C)C(=O)CC(c1ccc(Cl)cc1)(c1ccc(Cl)cc1)c1ccc(Cl)cc1` [Compound 40], in test [2], the inhibition at 10 µM came to 99% and the pIC50 was 5.92 to 6.00.

`OCCC[CH2][Ge]([c]1ccccc1)([c]1ccccc1)[c]1ccccc1` [Compound 72] had a pIC50 in test [1] of 5.97.

With `c1ccc([Si](c2ccccc2)(c2ccccc2)c2cccs2)cc1` [Compound 76], in test [2], the inhibition at 10 µM was determined as 84%.
